One assay has as its target PD-L1/CHO-K1 cells (Homo sapiens (Human), UniProt Q9NZQ7). The assay is described as follows: PD-L1 internalization (FACS, PD-L1/CHO-K1 cells). The format is cell-based. The note with it: % activation of PD-L1 internalization = 1 − PD-L1 signal; 17 hours incubation. How it is done: Day 1. Seeding cells: Digest the PD-L1/CHO-K1 cells by trypsin in the flask, then counting the cell number and diluted to 1×10^5 cells/ml. Seeding cells to 6 well plate (Corning, #3516), 2 mL/well. The plates were incubated at 37° C., […] incubator for 24 hours.
Day 2. Preparing compounds and treated cells: Dilute GLC01-258 from 15 mM to 0.5 mM by using DMSO, and 15 mM compound were serial diluted from 15 mM˜15 nM by DMSO, Then 500 times dilute the compounds by using assay buffer. Prepare 0.2% DMSO in assay buffer used for Vehicle control and low control. Take out the plates, aspirated the medium and thrown away. Adding 2 mL of the diluted compounds, vehicle control and low control to corresponding wells. Then incubated the plates for 17 hours at 37° C., 5% CO2 incubator.
Day 3. Preparing samples for FACS: After 17 hours incubation, discarded medium and washed by the PBS. Cells in each well were Digested by trypsin. Centrifuge and discard the supernatant, then wash the cells by DPBS (Ca^2+, Mg^2+ free) for twice. 10 fold dilute the antibody (PE-conjugated mouse anti-human CD274) by DPBS, then adding the staining solution to compounds treated samples and vehicle control sample. The low control only add DPBS without antibody. Incubate the plates at room temperature for 20 minutes and protect from light. After 20 minutes, wash the samples by DPBS for twice. Then centrifuge and discard the supernatant. Resuspend cells by 300 uL DPBS and transfer the samples to 5 mL Polystryrene Round-Bottom Tube (Falcon, #352054), then tested by BD FACSCanto. […].
Set the PD-L1 signal of vehicle control as 100%, PD-L1 signal of Low control as 0%. Then calculate the compound treated samples' PD-L1 signal
0% PD-L1 signal: Low control which stained without anti-CD274
100% PD-L1 Signal: vehicle control which stained with anti-CD274
The % activation of PD-L1 Internalization=1−PD-L1 signal of compound.

Assay [1] deals with extracellular domains of PD-L1 (Homo sapiens (Human), UniProt Q9NZQ7). The assay is described as follows: PD-L1 dimerization (biochemical protein-protein interaction assay). The following applies: PDL1-Eu and PDL1-A2, 25° C., 120 min. How it is done:
Compounds were tested in biochemical protein-protein interaction assays to determine if they can specifically dimerize the extracellular domains of PD-L1. • (1) Dilute cpd 1:3 in succession in DMSO for each column for 10±0 pts (refer to dilution plate map) • (2) Transfer 0.2 μL cpds solution in each row to 384 assay plate using Echo, each column containing 2 replicates (refer to assay plate map). • (3) Add 20 μL prepared mixture include PDL1-Eu and PDL1-A2 solution to assay plate, centrifuge at 1000 rpm for 1 min. • (4) Incubate at 25° C. for 120 min. • (5) Read fluorescence signal on Envision 2104 plate reader. • (6) Read the Ratio (665 nm/615 nm) signal on Envision. • (7) Analyze the raw data using the equation (V. Data analysis)

In a further assay the target is PD-1/PD-L1 (Homo sapiens (Human), UniProt Q9NZQ7). The assay is described as follows: PD-1/PD-L1 Homogeneous Time-Resolved Fluorescence (HTRF) binding assay. The note with it: 3 nM PD1, 10 nM PD-L1, 25° C., PBS pH 7.4. The essentials: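 HTRF with His-tagged human PD-L1 (19-238, 10 nM) and Fc-tagged human PD-1 (25-167, 3 nM) preincubated with inhibitors 40 min in PBS pH 7.4, 0.05% Tween-20, 0.1% BSA, 1% DMSO, 25° C. Eu anti-human IgG and anti-His-APC added, 60 min; 665/620 nm ratio; IC50 from percent control activity fit.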
Chain of PD-1/PD-L1 (Q9NZQ7 19-238): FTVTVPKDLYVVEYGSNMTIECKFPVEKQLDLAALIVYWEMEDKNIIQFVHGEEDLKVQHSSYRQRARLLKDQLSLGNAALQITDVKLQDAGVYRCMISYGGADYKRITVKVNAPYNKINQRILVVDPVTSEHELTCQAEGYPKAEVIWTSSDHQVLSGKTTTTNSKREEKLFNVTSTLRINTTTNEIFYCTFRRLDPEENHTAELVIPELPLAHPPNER

The subject of assay [2] is Hep3B-OS8-hPDL1 cells and CD3+ T cells. The assay is described as follows: Hep3B-OS8-hPDL1 and T cells co-culture assay (IFN-γ by ELISA). The format is cell-based. The following applies: Homo sapiens, T-cell, 72 hours, read-out: Tumor and T Cell EC50 (nm). How it is done: a. Hep3B-OS8-hPDL1 and T Cells Co-Culture Assay
• 1. Hep3B-OS8-hPDL1 cells were cultured in 1640 medium supplemented with 10% fetal bovine serum, 1% penicillin and streptomycin, in which 100 μg/mL G418 and Hygromycin B were also added. • 2. Hep3B-OS8-hPDL1 cells were harvested and treated with 10 μg/mL mitomycin C at 37° C. for 1.5 h, and the cells were then washed thoroughly with PBS for four times. • 3. Cells were re-suspended with RPMI 1640 medium containing 10% FBS and the cell density was adjusted to 5E5 cells/mL. • 4. Cells were seeded into 96-well flat bottom plate (2.5E4 cells/50 μL/well). b. CD3+ T Cells Isolation (30 mL Blood) • 5. The human blood sample from an individual donor is diluted by the same volume of sterile PBS, for instance add 25 mL sterile PBS into 25 mL fresh whole blood and mix sufficiently by gentle shake. • 6. Transfer 15 mL Lymphoprep medium into a new 50 mL centrifuge tube. • 7. Add the diluted blood sample as soft as possible onto the surface of the Ficoll medium to make sure there is a clear dividing line between the two liquids, and the volume ratio between Ficoll and diluted blood (30 mL) is 1:2. • 8. Move the tube gently to centrifuge, at 1000×g, 25 min, 20° C., with the acceleration (5) and Min deceleration (0) settings during the centrifugation. • 9. Four interfaces in all could be observed after the centrifugation, which are layers of plasma, mononuclear cells, the Ficoll medium and RBCs from top to bottom, and move the tube as gently as possible so as keep the four interfaces separated. Absorb and transfer the second layer of mononuclear cells into another new sterile centrifuge tube carefully, and absorb certain volume of plasma instead of the Ficoll medium if inevitable. • 10. Add sterile PBS of the three times the volume of PBMCs in the tube with PBMC. • 11. Wash the cells twice with 5-10 mL PBS before cell counting with cytometer. Centrifuge at 350×g, 10 min, 20° C. With the acceleration (5) and deceleration (5) settings during the centrifugation. • 12. Resuspend the cells with recommended medium and adjust the density of the PBMCs to the final concentration of 5E7 cells/mL. • 13. Isolate CD3+ T cells with EasySep™ Human T Cell Isolation Kit (STEMCELL Technologies #17951), and the cells were seeded into 96-well flat bottom plate (5E4 cells/100 μL/well). c. Compounds solutions preparation • 14. Prepare the Compounds dilutions in RPMI 1640 medium with 10% FBS according to the Layout. 15. Add compounds into each well in a volume of 50 μL. {3 compounds (GLC01-258, GLC01-269, GLC01-465) in 7 concentrations (0.03, 0.1, 0.3, 1, 3, 10 and 30 μM) and 6 compounds (GLC01-411, GLC01-292, GLC01-445, GLC01-475, GLC01-470 and GLC01-468) in the same concentration (1 μM)}. • 16. […]

Chain of extracellular domains of PD-L1 (Q9NZQ7 19-238): as above
Chain of PD-L1/CHO-K1 cells (Q9NZQ7 19-290): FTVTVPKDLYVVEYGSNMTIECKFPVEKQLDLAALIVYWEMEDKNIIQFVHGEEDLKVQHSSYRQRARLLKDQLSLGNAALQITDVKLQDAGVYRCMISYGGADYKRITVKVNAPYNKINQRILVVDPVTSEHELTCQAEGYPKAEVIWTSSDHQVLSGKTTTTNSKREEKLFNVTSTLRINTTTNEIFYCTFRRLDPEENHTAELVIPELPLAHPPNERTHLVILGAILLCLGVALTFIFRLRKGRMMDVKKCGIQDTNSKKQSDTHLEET

Take `O=C(O)[C@H](CO)NCCN1C(=O)COc2cc(-c3cccc(-c4cccc(-c5ccc6c(c5)OCC(=O)N6C[C@@H]5CCCN5)c4Cl)c3Cl)ccc21` [Compound 533]: the Internalization on PD-L1/CHO-K1 cells is on record as 32.70%. Further, the half-maximal effective concentration (EC50) (commonly the concentration that produces a half-maximal response) came out at 91 nM in assay [1] and 6.03 nM in assay [2]. Besides, the IC50 (as a rule, the concentration at which inhibition is half-maximal) on PD-1/PD-L1 worked out at 7.11 nM.

Turning to `O=C(O)[C@H](CO)NCCN1C(=O)COc2cc(-c3cccc(-c4cccc(-c5cc6c(cc5F)N(CCN[C@@H](CO)C(=O)O)C(=O)CO6)c4Cl)c3Cl)c(F)cc21` [Compound 554, (2S,2'S)-2,2′-((((2,2′-dichloro-[1,1′-biphenyl]-3,3′-diyl)bis(6-fluoro-3-oxo-2,3-dihydro-4H-benzo[b][1,4]oxazine-7,4-diyl))bis(ethane-2,1-diyl))bis(azanediyl))bis(3-hydroxypropanoic acid)], at PD-L1/CHO-K1 cells, the Internalization turned out to be 23.20%. The results for the concentration giving a half-maximal response (EC50) in assay [1] and in assay [2] were 55.8 nM and 5.1 nM, respectively. In addition, the IC50 at PD-1/PD-L1 is 5.51 nM.

The compound `C[C@H]1CC[C@@H](CN2C(=O)COc3cc(-c4cccc(-c5cccc(-c6ccc7c(c6)OCC(=O)N7C[C@@H]6CC[C@H](C)N6)c5Cl)c4Cl)ccc32)N1` [Compound 535] showed an Internalization at PD-L1/CHO-K1 cells of 21.00%. Moreover, in assay [1], the EC50 worked out at 354 nM. For the same compound, at PD-1/PD-L1, the IC50 was 4.41 nM.

The values are drawn from patent US20250340529A1, “Heterocyclic Compounds as Immunomodulators of PD-L1 Interactions” (Ascletis BioScience Co., Ltd, priority 2021, published 2025).
